Measured values published in patent US20110250254A1, “ANTIMICROBIAL COMPOSITIONS AND USES” (priority 2008, published 2011).
Read-outs that look alike come from different tables or passages of the source.

Assays:
Type in all cases: cell-based
S. epidermidis [1] = assay: Shaking biofilm model (200 rpm), safranine staining; settings: Staphylococcus epidermidis, S. epidermidis, read-out: Shaking biofilm model % Remaining
Procedure: (§1) According to the static biofilm model, a given thiophenone 200 μmol/L was dissolved in 500 μl absolute ethanol and applied to wells of a standard 24 well microtiter plate. The ethanol was evaporated from the wells in a laminar air sterile work bench at room temperature so as to leave a coating of the thiophenone in the well. A sample of bacteria was then added to the well and incubated for a given period of time. After incubation, the percentage of bacteria remaining was assessed by safranine staining of the biofilm. Bound safranine was released by acetic acid and optical density was measured in Synergy HT Multi-Detection Microplate Reader and compared to a control.
(§2) According to the shaking biofilm model, the microtiter plates were shaken (200 rpm) in a Minitron Incubator Shaker during biofilm formation.

V. harveyi [2] = assay: as above
Procedure: as §1, §2

[3] = test system: Vibrio harveyi BB170 (AI-2 reporter); assay: Bioluminescence assay of AI-2 quorum-sensing; settings: compared with the corresponding furanone compound
Procedure: (§3) The effect of (Z)-5-(bromomethylene) thiophen-2(5H)-one on AI-1 and AI-2 quorum-sensing by bacteria was tested in a bioluminescence assay as follows:
(§4) Inhibition of quorum sensing was assessed as the ability of the furanone to reduce bioluminescence induced by cell free bacterial culture supernatant containing either AI-1 or AI-2 signal molecules. Vibrio harveyi BB886 was used as an AI-1 reporter and Vibrio harveyi BB170 was used as reporter of AI-2 communication.

[4] = test system: Vibrio harveyi BB886 (AI-1 reporter); assay: Bioluminescence assay of AI-1 quorum-sensing; settings: compared with the corresponding furanone compound
Procedure: as §3, §4

E. faecalis = assay: Static biofilm model, safranine staining; settings: 4 h incubation
Procedure: as §1

Pseudoalteromonas = assay: Static biofilm model, safranine staining; settings: 4 h incubation
Procedure: as §1

S. epidermidis [5] = assay: Static biofilm model, safranine staining; settings: 6 h incubation, thiophenone 200 μmol/L coating
Procedure: as §1

V. harveyi [6] = assay: Static biofilm model, safranine staining; settings: 4 h incubation
Procedure: as §1

For `O=C1C=C/C(=C/Br)S1` [Thio101, (Z)-5-(bromomethylene) thiophen-2(5H)-one], the activity at 200 µM (S. epidermidis [1]; 6 h incubation) was 13%, the activity at 200 µM (S. epidermidis [1]; 20 h incubation) was 15% and the “Shaking biofilm model % Remaining” value (V. harveyi [2]; 8 h incubation) was 54%. The “Shaking biofilm model % Remaining” value (V. harveyi [2]; 18 h incubation) was 56%, the “Inhibition of AI-2 quorum-sensing” value [3] was “considerably more effective” and the “Inhibition of AI-1 quorum-sensing” value [4] was “considerably more effective”. For the same compound, the “Static biofilm model % Remaining” value (E. faecalis; coating) was 66%, the “Static biofilm model % Remaining” value (E. faecalis; in medium) was 32% and the “Static biofilm model % Remaining” value (Pseudoalteromonas; coating) was 52%. For the same compound, the “Static biofilm model % Remaining” value (Pseudoalteromonas; in medium) was 36%, the “Static biofilm model % Remaining” value (S. epidermidis [5]) was 28% and the “Static biofilm model % Remaining” value (V. harveyi [6]; coating) was 20%. For the same compound, the “Static biofilm model % Remaining” value (V. harveyi [6]; in medium) was 9%.
